pIC50, pKd: −log10 of the molar value. Calls of active or inactive are those of the source. No cut-off for these calls is given here.
Assays:
[1] = test system: Human immunodeficiency virus 1; assay: Inhibition of HIV1 capsid protein p24 interaction with CPSF6 (308-327) at 300 uM
[2] = Binding affinity to HIV1 capsid protein p24 by SPR assay; set-up: species or system Human immunodeficiency virus 1
[3] = test system: Human immunodeficiency virus 1; assay: Binding affinity to HIV1 capsid protein p24 assessed as turbidity at 100 uM by spectrophotometer analysis
[4] = test system: Human immunodeficiency virus 1; assay: Antiviral activity against HIV1 NL4-3 pseudotyped with JR-FL envelope infected in human U87.CD4.CCR5 cells by single-round infection assay; type: functional, organism-based; settings: Human immunodeficiency virus 1, NL4-3, U87/CD4/CCR5
[5] = test system: Human immunodeficiency virus 1; assay: Inhibition of HIV1 capsid protein p24 interaction with CPSF6 (308-327) at 2.5 uM
[6] = Cytotoxicity against human U87 cells expressing CD4.CCR5; type: cell-based, U-87MG ATCC
[7] = Therapeutic index, ratio of CC50 for human U87 cells expressing CD4.CCR5 to IC50 for HIV1 NL4-3 pseudotyped with JR-FL envelope; type: cell-based, U-87MG ATCC; settings: read-out: Ratio CC50/IC50

For `Cc1[nH]c2ccccc2c1CC(=O)N[C@@H](Cc1ccccc1)C(=O)N(C)c1ccccc1`, the inhibition [1] was “Active”, the pKd [2] was 5.60 and the Activity [3] was “Active”.

With `O=C(Cc1c[nH]c2ccccc12)NCC1(c2ccccc2)CC1` the pIC50 [4] was 4.74, the inhibition [5] was “Active” and the pKd [2] was 4.42. The CC50 [6] was 526 µM, the Activity [3] was “Active” and the selectivity ratio [7] was greater than 29.

From ChEMBL document CHEMBL3745691, “Identification of a small molecule HIV-1 inhibitor that targets the capsid hexamer” (Bioorg Med Chem Lett, 2016)
